The results in this text go back to patent US8546442B2, “Pyrazolopiperidine compounds as CCR1 receptor antagonists” (Boehringer Ingelheim International GmbH, priority 2010, dated 2013).

The structures appear in SMILES notation. pIC50: −log10 of the molar value.

In experiment [1] the target is T1, CCR1 (Homo sapiens, UniProt P32246).
T1 sequence (P32246 1-355): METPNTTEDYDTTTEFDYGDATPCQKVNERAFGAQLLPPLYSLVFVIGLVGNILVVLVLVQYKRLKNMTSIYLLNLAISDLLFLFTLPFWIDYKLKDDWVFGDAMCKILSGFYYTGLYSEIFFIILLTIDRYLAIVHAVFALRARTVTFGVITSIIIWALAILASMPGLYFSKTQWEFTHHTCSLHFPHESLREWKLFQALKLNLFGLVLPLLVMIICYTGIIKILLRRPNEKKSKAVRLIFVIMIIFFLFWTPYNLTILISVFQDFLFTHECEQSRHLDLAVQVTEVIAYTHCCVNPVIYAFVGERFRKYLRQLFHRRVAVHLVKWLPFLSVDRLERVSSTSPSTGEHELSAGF
Nature of the experiment: calcium flux in CCR1 transfected cells, Method A (Fluo-4 NW, FLIPR TETRA). It counts as cell-based. The following applies: cells stably expressing recombinant CCR1 and G-alpha-16, MIP-1 alpha at EC80. Here is the method: (§1) Compounds are assessed for the ability to block the interaction of CCR1 and MIP-1α in a functional cellular assay measuring calcium flux in CCR1 transfected cells.
Method A: Non-adherent cells purchased from Chemicon Corporation (HTS005C), stably expressing recombinant CCR1 and G-alpha-16 are grown in RPMI 1640 medium (Mediatech 10-080-CM) supplemented with 10% heat-inactivated FBS, 0.4 mg/mL Geneticin and penicillin/streptomycin. On the day of the assay, the cells are transferred to a beaker and dye-loaded in bulk using a Fluo-4 NW Calcium Assay Kit with probenecid (Invitrogen F36205) at 0.8E6 cells/mL for 1 hour at room temperature. After 1 hour, they are seeded in a 384-well tissue culture-treated plate at a density of 20,000 cells/well. Appropriately diluted test compound is added to the well to achieve a top concentration of 3,000 nM (diluted 4-fold with 10 doses total). The final concentration of DMSO is 1%. The buffer is HBSS (Invitrogen 14025) with 20 mM HEPES at pH 7.4. The cells are allowed to incubate 1 hour in the dark at room temperature. The plates are transferred to the FLIPR TETRA where MIP-1 alpha in 1% BSA is added at the EC80 final concentration. Wells+/−MIP-1 alpha containing diluted DMSO instead of compound serve as the controls. Intracellular calcium flux is recorded on the FLIPR TETRA, using excitation at 470/495 nm and emission at 515/575 nm. Data are analyzed using Activity Base software.
In general terms: Calcium flux is commonly read through the fluorescence of an indicator in the cells.

Experiment [2] deals with T1, CCR1. Nature of the experiment: calcium flux in CCR1 transfected cells, Method B (Calcium 4 dye, HAMAMATSU FDSS6000). It counts as cell-based. The following applies: cells stably expressing recombinant CCR1 and G-alpha-16, MIP-1alpha at EC80. The procedure:
as §1
Method B: Non-adherent cells purchased from Chemicon Corporation (HTS005C), stably expressing recombinant CCR1 and G-alpha-16 are grown in RPMI 1640 medium (Mediatech 10-080-CM) supplemented with 10% FBS, 0.4 mg/mL Geneticin and penicillin/streptomycin. On the day of the assay, the cells are loaded with Calcium 4 dye (Molecular Devices R7448) with Probenecid (Invitrogen P346400) at 8E5 cells/mL for 1 hour at room temperature. After 1 hour, they are seeded in a 384-well tissue culture-treated plate at a density of 20,000 cells/well. Appropriately diluted test compound is added to the well to achieve a top concentration of 3,000 nM (diluted 4-fold with 10 doses total). The final concentration of DMSO is 1%. The buffer is HBSS (Invitrogen 14025) with 20 mM HEPES at pH 7.4. The cells incubate 30 minutes at 37 C and then 30 minutes at room temperature. The plates are transferred to the HAMAMATSU FDSS6000 where MIP-1alpha in 1% BSA is added at the EC80 final concentration. All plates must be read within 4 hours of the start of dye-loading. Wells+/−MIP-1alpha containing diluted DMSO instead of compound serve as the controls. Data are analyzed using Activity Base software.

As usually defined, the pIC50 is −log10 of the IC50, conventionally taken in molar units. For `CNS(=O)(=O)c1ccc(CNC(=O)N2CCCc3c2cnn3-c2ccc(F)cc2)c(Cl)c1` [Example 31], the pIC50 on CCR1 [1] is 8.52; at CCR1 [2], 9.00.
With `CCC[C@H](NC(=O)N1CCCc2c1cnn2-c1c(F)cc(F)cc1F)c1ccnc(S(C)(=O)=O)c1` [Example 63], the pIC50 on CCR1 [1] and at CCR1 [2] was 7.85 throughout.
For `CC[C@H](NC(=O)N1CCCc2c1cnn2-c1ccc(F)cc1)c1cncc(Br)c1` [Example 42], the pIC50 was 9.40 on CCR1 [1] and 9.70 at CCR1 [2].
As to `CCC[C@H](NC(=O)N1CCCc2c1cnn2-c1ccc(F)cc1)c1ccc(Br)nc1` [Example 49], the pIC50 at CCR1 [1] was 7.92; on CCR1 [2], 8.70.
Turning to `C[C@H](NC(=O)N1CCCc2c1cnn2-c1ccc(F)cc1)c1cncc(Br)c1` [Example 41], the pIC50 is 8.22 at CCR1 [1] and 8.70 on CCR1 [2].
With `CC[C@H](NC(=O)N1CCCc2c1cnn2-c1ccc(F)cc1)c1ccnc(S(C)(=O)=O)c1` [Example 59], the pIC50 is 9.40 on CCR1 [1] and 9.22 at CCR1 [2].
As to `CCC[C@H](NC(=O)N1CCCc2c1cnn2-c1ccc(F)cc1F)c1ccnc(S(C)(=O)=O)c1` [Example 62], the pIC50 at CCR1 [1] and on CCR1 [2] was 9.00 throughout.
For `COCCNS(=O)(=O)c1ccc(CNC(=O)N2CCCc3c2cnn3-c2ccc(F)cc2)cc1` [Example 26], the pIC50 was 8.22 at CCR1 [1] and 8.40 on CCR1 [2].
Take `CCC[C@H](NC(=O)N1c2cnn(-c3ccc(F)cc3)c2CCC1C(F)(F)F)c1ccnc(S(C)(=O)=O)c1` (single isomer, unassigned) [Example 56]: the pIC50 on CCR1 [1] was 8.00; at CCR1 [2], 8.22.
Turning to `CS(=O)(=O)c1ccc(CNC(=O)N2CCCc3c2cnn3-c2ccc(F)cc2)cc1` [Example 25], the pIC50 on CCR1 [1] is 7.29; at CCR1 [2] it was 7.19.
Regarding `CCC[C@H](NC(=O)N1CCCc2c1cnn2-c1ccc(F)cc1)c1cncc(Br)c1` [Example 46], the negative logarithm of the IC50 (pIC50) on CCR1 [1] and at CCR1 [2] was 9.70 in each case.
